Measurements: patent US7745481B2, “Methods and compositions for the treatment and prevention of tumors, tumor-related disorders and cachexia” (Daiichi Sankyo Company, Limited, priority 1997, dated 2010)

Assays:
Format in all cases: in vivo
[1] = test system: mouse colon cancer Colon 26 cells; assay: Test of anticachexia effects in mice bearing mouse colon cancer Colon 26 cells; conditions: for Inhibition of mouse tumor cachexia and recovery of body weight loss (in words): Example 4, written in present tense, no data; for Body Weight Recovery Rate (%): day 19, (Δgt−Δgc1)/(Δgc2−Δgc1)×100; for Weight Gain (Δg): day 19 after tumor cell transplantation, female CDF1 mice 8 weeks old; for Average Weight Gain (Δg): 22 days after tumor transplantation, female CDF1 mice 16 weeks old, control −4.2
Excerpt: The test animals were CDF1 mice (females, 8 weeks old). They were employed in groups of 10 for each test. 1×10^6 mouse colon cancer Colon 26 cells were transplanted subcutaneously into each animal.
The test compounds were Compounds No. 1-94 and 2-78 as shown above in Tables 1 and 2, respectively, and having the following formulae: […]
Each test compound was suspended in sterilized distilled water containing 0.5% w/v carboxymethyl cellulose (CMC) and administered orally once per day starting on the day of the tumor cell transplantation.
Each test animal was weighed immediately after tumor cell transplantation, and the weight (A g) was recorded. Each animal was then weighed on day 19 after tumor cell transplantation, and the weight (B g) was recorded. The weight gain on day 19 after tumor cell transplantation was calculated as B−A=Δgt for the test animals. The experiment was repeated with two control groups: the first control group (control group 1) was transplanted with the tumor cells but were not treated with any test compound, and the weight gain is reported as Δgc1; the second control group (control group 2) were not transplanted with the tumor cells and were not treated with any test compound, and the weight gain is reported as Δgc2. The body weight recovery rate was determined according to the following formula based on the weight gain on day 19 after tumor cell transplantation, and this value was used as an indicator of the anticachexia effect. Body weight recovery rate (%)=(Δgt−Δgc1)/(Δgc2−Δgc1)×100
(§1) The procedure described in Example 1 was repeated, but using the compound of formula (III) as the test compound, and comparing the weight gain (Δgt) of the test group of animals to which the compound of formula (III) had been administered with a control group (Δgc) into which the tumor cells had been transplanted but to which no anti-tumor compound had been administered. The test animals were female CDF1 mice, 16 weeks old. Also, the weight gain was measured 22 days after tumor transplantation. The average body weight of each group of animals immediately after tumor transplantation was 25 to 26 g.
as §1, with “Example 2” for “Example 1”, “formula (IV)” for “formula (III)”, “mice, 7” for “mice, 16”, “measured 15” for “measured 22”, “was 20” for “was 25”, “to 21” for “to 26”
Test compounds [the compounds of formula (V), (VI), (VII), (VIII), (IX), (X), (XI), (XII), (XIII) and (XIV)] are administered in the same manner as described in Example 2.

[2] = test system: mouse colon cancer Colon 26 cells; assay: Life-prolonging activity test in mice bearing Colon 26 cells; conditions: for Life-prolongation (in words): Example 7, animals of Examples 3 and 4, present tense, no data; for Life-prolonging Index (%): (St/Sc−1)×100
Experimental: Observation of the mice used in Example 1 above was continued. The life-prolonging index was determined, based on the number of days each mouse survived, and this value was then used as an indicator of the life-prolonging effects of the test compounds.
It should be noted that, in the case of the group of mice treated with a test compound, oral administration of the respective compound once daily was continued on day 20 after tumor cell transplantation and beyond as well. Life-prolonging index (%)=(St/Sc−1)×100 • St: Median value of survival time (days) of the group of mice treated with a test compound • Sc: Median value of survival time (days) of the control group which were […].
The experiment reported in Example 5 was repeated with the animals used in Example 2. In the case of the group of mice treated with a test compound, oral administration of the respective compound once daily was continued on day 23 after tumor cell transplantation and beyond as well.
The experiment reported in Example 5 is repeated with the animals used in Examples 3 and 4.

[3] = test system: mouse malignant melanoma B16-BL6 cells; assay: Inhibitory effect on lung metastasis of mouse malignant melanoma B16-BL6 cells
Experimental: Groups of mice, each group containing ten C57BL/6 mice (female, age: 8 weeks) were transplanted intravenously into the tail vein with 3×10^4 of mouse malignant melanoma B16-BL6 cells.
The mice were, when necessary, administered intravenously into the tail vein with a bacterial lipopolysaccharide (LPS) in an amount of 3 μg each within one hour before transplantation of the melanoma cells so as to accelerate lung metastasis of the melanoma [M. J. Anasagasti et al., J. Natl. Cancer Research, 89, 645-651 (1997).]
As test compounds, Compound No. 2-118, a compound of formula (IV), a compound of formula (V) and indomethacin were employed, and each was suspended in sterilized distilled water containing 0.5% w/v of carboxymethyl cellulose (CMC), and the suspensions were orally administered at a dose of 1 mg/kg per day for five days starting from the day of the melanoma cell transplantation.
Inhibitory activities on lung metastasis of the melanoma cells were evaluated in terms of the lung metastasis inhibitory rate (LMI %) by counting the number of metastatic colonies in the lung on the 10th day after intravenous transplantation of the mouse malignant melanoma B16-BL6 cells at the tail. LMI(%)=(1−Nt/Nc)×100 • Nt: Numbers of lung metastatic colonies on the 10th day in groups administered with the test compounds; and • Nc: Numbers of lung metastatic colonies on the 10th day in control groups which were not administered with the test compounds.

[4] = 1 mg/kg oral once daily, mice of Example 1
[5] = 1 mg/kg oral once daily, mice of Example 1, untreated 29.0
[6] = 3 mg/kg oral once daily, mice of Example 1
[7] = 3 mg/kg oral once daily, mice of Example 1, untreated 29.0
[8] = 10 mg/kg oral once daily, mice of Example 1
[9] = 10 mg/kg oral once daily, mice of Example 1, untreated 29.0

CS(=O)(=O)Nc1cc2occ(NC=O)c(=O)c2cc1Oc1ccccc1 [(IX), N-(3-formylamino-4-oxo-6-phenoxy-4H-1-benzopyran-7-yl)methanesulfonamide]
Inhibition of mouse tumor cachexia and recovery of body weight loss (in words) [1]: inhibit mouse tumor cachexia and recover loss of average of body weight
Life-prolongation (in words) [2]: exhibit pronounced life-prolongation

Cc1cnc(NC(=O)C2=C(O)c3ccccc3S(=O)(=O)N2C)s1 [(VI), 4-hydroxy-2-methyl-N-(5-methylthiazol-2-yl)-2H-1,2-benzothiazine-3-carboxamide-1,1-dioxide]
Inhibition of mouse tumor cachexia and recovery of body weight loss (in words) [1]: inhibit mouse tumor cachexia and recover loss of average of body weight
Life-prolongation (in words) [2]: exhibit pronounced life-prolongation

CS(=O)(=O)Nc1ccc([N+](=O)[O-])cc1Oc1ccccc1 [(VII), N-(4-Nitro-2-phenoxyphenyl)methanesulfonamide]
Inhibition of mouse tumor cachexia and recovery of body weight loss (in words) [1]: inhibit mouse tumor cachexia and recover loss of average of body weight
Life-prolongation (in words) [2]: exhibit pronounced life-prolongation

Cc1nc(C2CCCCC2)c(-c2ccc(S(N)(=O)=O)c(F)c2)o1 [(VIII), 4-(4-cyclohexyl-2-methyloxazol-5-yl)-2-fluorobenzenesulfonamide]
Inhibition of mouse tumor cachexia and recovery of body weight loss (in words) [1]: inhibit mouse tumor cachexia and recover loss of average of body weight
Life-prolongation (in words) [2]: exhibit pronounced life-prolongation

CCN1CC/C(=C\c2cc(C(C)(C)C)c(O)c(C(C)(C)C)c2)S1(=O)=O [(X), (E)-2-ethyl-5-(3,5-di-t-butyl-4-hydroxy)benzylidene-1,2-isothiazolidine-1,1-dioxide]
Inhibition of mouse tumor cachexia and recovery of body weight loss (in words) [1]: inhibit mouse tumor cachexia and recover loss of average of body weight
Life-prolongation (in words) [2]: exhibit pronounced life-prolongation

CS(=O)(=O)c1ccc(C2=C(c3ccc(F)cc3)CCC2)cc1 [(XI), 1-(4-methanesulfonylphenyl)-2-(4-fluorophenyl)cyclopentene]
Inhibition of mouse tumor cachexia and recovery of body weight loss (in words) [1]: inhibit mouse tumor cachexia and recover loss of average of body weight
Life-prolongation (in words) [2]: exhibit pronounced life-prolongation

CS(=O)(=O)c1ccc(C2=C(c3ccccc3)C(=O)OC2)cc1 [(XII), 3-phenyl-4-(4-methanesulfonylphenyl)-5H-furan-2-one]
Inhibition of mouse tumor cachexia and recovery of body weight loss (in words) [1]: inhibit mouse tumor cachexia and recover loss of average of body weight
Life-prolongation (in words) [2]: exhibit pronounced life-prolongation

CS(=O)(=O)c1ccc(C2=C(c3cc(F)cc(F)c3)C(=O)CC2)cc1 [(XIII), 2-(3,5-difluorophenyl)-3-(4-methanesulfonylphenyl)-2-cyclopenten-1-one]
Inhibition of mouse tumor cachexia and recovery of body weight loss (in words) [1]: inhibit mouse tumor cachexia and recover loss of average of body weight
Life-prolongation (in words) [2]: exhibit pronounced life-prolongation

Cc1onc(-c2ccccc2)c1-c1ccc(S(N)(=O)=O)cc1 [(XIV), 4-[5-methyl-3-phenylisoxazol-4-yl)benzenesulfonamide]
Inhibition of mouse tumor cachexia and recovery of body weight loss (in words) [1]: inhibit mouse tumor cachexia and recover loss of average of body weight
Life-prolongation (in words) [2]: exhibit pronounced life-prolongation

CSc1ccc(-n2cc(C)cc2-c2ccc(S(N)(=O)=O)cc2)cc1 [Compound 1-94, 4-methyl-1-(4-methylthiophenyl)-2-(4-sulfamoylphenyl)pyrrole]
Body Weight Recovery Rate (%) ([1]; 1 mg/kg oral once per day): 78%
Weight Gain (Δg) ([1]; 1 mg/kg oral once per day): 2.2 g
Body Weight Recovery Rate (%) ([1]; 3 mg/kg oral once per day): 89%
Weight Gain (Δg) ([1]; 3 mg/kg oral once per day): 2.7 g
Body Weight Recovery Rate (%) ([1]; 10 mg/kg oral once per day): 98%
Weight Gain (Δg) ([1]; 10 mg/kg oral once per day): 3.1 g
Life-prolonging Index (%) [2, 4]: 67%
Survival Period (median: days) [2, 5]: 48.5 days
Life-prolonging Index (%) [2, 6]: 21%
Survival Period (median: days) [2, 7]: 35.0 days
Life-prolonging Index (%) [2, 8]: 55%
Survival Period (median: days) [2, 9]: 45.0 days

CCOc1ccc(-c2cc(C)cn2-c2ccc(S(N)(=O)=O)cc2)cc1 [Compound 2-78]
Body Weight Recovery Rate (%) ([1]; 1 mg/kg oral once per day): 85%
Weight Gain (Δg) ([1]; 1 mg/kg oral once per day): 2.5 g
Body Weight Recovery Rate (%) ([1]; 3 mg/kg oral once per day): 85%
Weight Gain (Δg) ([1]; 3 mg/kg oral once per day): 2.5 g
Body Weight Recovery Rate (%) ([1]; 10 mg/kg oral once per day): 88%
Weight Gain (Δg) ([1]; 10 mg/kg oral once per day): 2.6 g
Life-prolonging Index (%) [2, 4]: 55%
Survival Period (median: days) [2, 5]: 45.0 days
Life-prolonging Index (%) [2, 6]: 74%
Survival Period (median: days) [2, 7]: 50.5 days
Life-prolonging Index (%) [2, 8]: 67%
Survival Period (median: days) [2, 9]: 48.5 days

CS(=O)(=O)c1ccc(C2=C(c3ccc(F)c(F)c3)C(=O)OC2)cc1 [Compound (III), 3-(3,4-difluorophenyl)-4-(4-methanesulfonylphenyl)-5H-furan-2-one]
Average Weight Gain (Δg) ([1]; 1 mg/kg oral once per day): 0.0 g
Average Weight Gain (Δg) ([1]; 3 mg/kg oral once per day): 0.3 g
Average Weight Gain (Δg) ([1]; 10 mg/kg oral once per day): 0.9 g
Inhibition of mouse tumor cachexia and weight loss (in words) ([1]; Examples 1-3, 1-10 mg/kg oral): inhibited mouse tumor cachexia and reduced weight loss
Survival Period (median: days) ([2]; 1 mg/kg oral once daily, mice of Example 2 (16 weeks old), untreated 23.0): 40.5 days
Life-prolonging Index (%) ([2]; 1 mg/kg oral once daily, mice of Example 2): 76%
Survival Period (median: days) ([2]; 3 mg/kg oral once daily, mice of Example 2 (16 weeks old), untreated 23.0): 37.5 days
Life-prolonging Index (%) ([2]; 3 mg/kg oral once daily, mice of Example 2): 63%
Survival Period (median: days) ([2]; 10 mg/kg oral once daily, mice of Example 2 (16 weeks old), untreated 23.0): 43.5 days
Life-prolonging Index (%) ([2]; 10 mg/kg oral once daily, mice of Example 2): 91%

COc1ccc2c(c1)c(CC(=O)O)c(C)n2C(=O)c1ccc(Cl)cc1 [Indomethacin, reference compound]
Inhibition of lung metastasis (in words) ([3]; 1 mg/kg oral, lung metastasis accelerating conditions (LPS)): had no such inhibitory activity
LMI (%) lung metastasis inhibitory rate ([3]; LPS 3 μg i.v. before transplantation, 1 mg/kg per day oral for five days, colonies counted on 10th day, C57BL/6 mice): −1%
